“Also recorded” adds a separate entry of the source. Like-named read-outs stand apart in the source and are kept apart here.

We go through five compounds from article PMC7821181, “MS Binding Assays for Glycine Transporter 2 (GlyT2) Employing Org25543 as Reporter Ligand” (Chemmedchem, 2020).

On the set-up of series [1]: method as in PMID 23962079. As to conditions: after intravenous injection; cited from earlier work.
The next series concerns the target T1, hGlyT2 (Homo sapiens, UniProt Q9Y345).
T1 construct: host or cells: HEK293 cells stably expressing hGlyT2; crude membrane fractions
T1 sequence (Q9Y345 1-797): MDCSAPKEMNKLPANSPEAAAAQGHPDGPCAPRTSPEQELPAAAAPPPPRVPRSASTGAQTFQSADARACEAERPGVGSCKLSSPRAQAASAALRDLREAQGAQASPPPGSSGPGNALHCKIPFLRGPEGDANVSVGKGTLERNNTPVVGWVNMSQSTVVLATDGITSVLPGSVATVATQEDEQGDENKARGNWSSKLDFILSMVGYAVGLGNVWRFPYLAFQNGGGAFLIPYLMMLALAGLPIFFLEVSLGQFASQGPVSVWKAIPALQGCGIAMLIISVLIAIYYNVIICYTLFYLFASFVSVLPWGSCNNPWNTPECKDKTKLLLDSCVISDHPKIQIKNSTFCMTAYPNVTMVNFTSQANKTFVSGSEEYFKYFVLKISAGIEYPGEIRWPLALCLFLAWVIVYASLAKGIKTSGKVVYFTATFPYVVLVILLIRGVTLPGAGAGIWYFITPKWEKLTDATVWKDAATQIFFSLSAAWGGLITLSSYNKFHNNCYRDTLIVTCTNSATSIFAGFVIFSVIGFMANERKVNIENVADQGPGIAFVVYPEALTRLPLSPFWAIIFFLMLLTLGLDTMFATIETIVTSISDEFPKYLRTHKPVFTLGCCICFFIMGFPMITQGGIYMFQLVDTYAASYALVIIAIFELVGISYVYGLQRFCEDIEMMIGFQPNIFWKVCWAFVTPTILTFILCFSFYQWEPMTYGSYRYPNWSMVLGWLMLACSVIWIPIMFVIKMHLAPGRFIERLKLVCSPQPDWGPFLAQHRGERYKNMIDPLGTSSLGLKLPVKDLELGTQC
Kind of series: GlyT2 MS Binding Assays: competition experiments with Org25543 as reporter ligand. Here is the method:
For the development of the desired competitive MS Binding Assay, the general concept of this kind of binding experiments was followed, in which the affinity of a test compound is delineated from its potency to compete out a reporter ligand, in our case Org25543, from its target binding site. Accordingly, the target protein was incubated with a defined concentration of the reporter ligand and increasing concentration of the individual test compound. In detail, the competitors were studied at seven different concentration levels, which covered about three concentration log units, whereas the concentration of Org25543 was fixed to 10 nM. Thereafter, via the developed LC‐ESI‐MS/MS method the amount of bound marker (total binding) was determined for the samples obtained from the individual incubation mixtures by the common workup for MS Binding Assays. Nonspecific binding was again determined in a set of analogous experiments in which GlyT2 membrane fractions were replaced by material subjected to a heat‐shock before. The resulting amount of Org25543 binding was defined as 0 % level of specific reporter ligand binding. […] The thus determined IC50 values were finally used to calculate the corresponding K i values by means of the Cheng‐Prusoff equation.
For preparation of GlyT2 membrane preparations HEK293 cells, stably expressing the hGlyT2 with a confluence ≥90 %, were used (kindly provided by AbbVie (Wiesbaden, Germany)). As cell culture medium DMEM containing 10 % fetal bovine serum (m/v), 100 U mL^−1 penicillin, 100 μg mL^−1 streptomycin and […] hygromycin B was used and the cells were cultivated in dishes (143 cm^2) at 37 °C and 8 % CO2. The cells were detached from the dish by aspirating the medium, adding 12 mL cell culture medium without hygromycin B and pipetting the medium several times until the cell lawn was completely detached. Subsequently, the cells were washed twice with PBS (5 min, 1600 rpm, Biofuge Stratos, rotor: #3047, Heraeus, Hanau, Germany) and afterwards homogenized in incubation buffer (10 mM HEPES, 120 mM NaCl, 2 mM KCl, 1 mM MgCl2, 1 mM CaCl2, pH 7.5) using a Polytron PTA 10 S (Kinematica Polytron, Littau‐Luzern, Switzerland). After homogenization aliquots of about 1 mg protein were frozen and stored at −80 °C. To determine the amount of protein in the membrane preparation (after treatment with 100 mM NaOH for 1 h) the protein determination according to Bradford ^[63] was applied, using bovine serum albumin as standard for calibration. At the day of the assay the membrane preparation was rapidly thawed, diluted in 20 mL incubation buffer and centrifuged at 4 °C for 20 min at 20 500 rpm (Sorvall Evolution RC, rotor: SS34, Thermo. Electron, Hanau, Germany). Finally, the resulting pellet was resuspended in 6 mL incubation buffer yielding a protein concentration of ∼0.1–0.2 mg mL^−1.
In polypropylene 96‐well plates (1.2 mL well volume, Sarstedt) membrane preparations (∼5–10 μg protein) were incubated in the presence of the reporter ligand and, if required, test compounds in incubation buffer (10 mM HEPES, 120 mM NaCl, 2 mM KCl, 1 mM MgCl2, 1 mM CaCl2, pH 7.5) in a total volume of 250 μL at 37 °C in a Julabo SW‐20 C water bath (Julabo GmbH, Seelbach, Germany) for 1 h (every sample was prepared in triplicates). After the incubation 210 μL aliquots of the binding samples were transferred by means of a 12‐channel pipette onto 96‐well glass fiber filter plates (AcroPrep Advance, glass fiber, 1.0 μm, 350 μL; Pall Corporation, Port Washington, NY, USA) where the incubation was terminated by vacuum filtration (the samples were transferred and the incubation was terminated row after row; Multi Well Plate Vacuum Manifold, Pall, Dreieich, Germany).

The test system of series [2] is GlyT2. As to conditions: cited from earlier work; for IC50: read-out: Biological activity, IC50 (literature); for pIC50 (literature; calcd): calcd from literature IC50.
The conditions of series [3]: cited from earlier work.
The target of series [4] is T2, GlyT2 (Homo sapiens, UniProt Q9Y345).
T2 construct: host or cells: HEK293 cells stably expressing hGlyT2; crude membrane fractions
T2 sequence (Q9Y345 1-797): T1 sequence (Q9Y345 1-797)
The experiment in a line: influence of DMA on binding of Org25543 towards GlyT2 in competition experiments. The conditions noted are these: DMA as competitor, up to a concentration of 2 % (215 mM). Here is the method:
Investigating adsorption of Org25543 to polypropylene container material To investigate the adsorption ability of Org25543 to polypropylene container material dilution series of Org25543 were prepared in reaction tubes (1.5 mL, PP, Sarstedt, Nümbrecht, Germany) using different solvents or solvent mixtures, respectively (H2O, acetonitrile, H2O/DMSO (80:20, v/v), H2O/N,N-dimethylacetamide (DMA; 80:20, 90:10 and 95:5 v/v)). At least five concentration levels (10-fold concentration; 10 nM – 625 pM) were prepared in each solvent and these concentration levels were diluted again 1:10 (final concentrations of Org25543: 1 nM – 62.5 pM) in a mixture of ammonium bicarbonate buffer (5 mM, pH7.8) and acetonitrile containing 111 pM [2H7]Org25543 (final concentration: 100 pM) that the final sample solvent equals the mobile phase.
Then the samples were subjected to LC-ESI-MS/MS quantification and the obtained peak area ratios of Org25543 and [ 2H7]Org25543 were plotted against the concentration of Org25543. By using linear regression analysis calibration curves were obtained for all dilution series and were compared to each other. The calibration curves are depicted in Figure S 4.
Investigating the influence of N,N-dimethylacetamide (DMA) on the binding of Org25543 towards GlyT2 in competition experiments […]

Series [5] deals with GlyT2. As to conditions: ref 23; read-out: IC50 in [3H]glycine uptake assay; cited from earlier work.
[6] abbreviates: read-out: Affinity, pKi (GlyT2 MS Binding Assays) (converted).

A word on the IC50: it is the concentration that gives 50% inhibition. On to `N[C@@H](COC(c1cccc(F)c1)c1ccccc1OCc1ccccc1)C(=O)O` (stereo partly shown) [ALX1393, O‐[(2‐benzyloxyphenyl‐3‐flurophenyl)methyl]‐L‐serine], for which the “fraction crossing the blood‐brain‐barrier” value in series [1] is 5%. In addition, the Ki at hGlyT2 (setting [6]) was 1170 nM. Besides, the IC50 with GlyT2 [2] (ref 11, 40) was 26 to 100 nM.

On hGlyT2, `CCCCC/C=C\C/C=C\C/C=C\C/C=C\CCCC(=O)NCC(=O)O` [N‐arachidonylglycine, N‐(1‐oxo‐(5Z,8Z,11Z,14Z)‐eicosatetraenyl)glycine] had a Ki of 3980 nM. Also, in the series on GlyT2 [2] (ref 52), the “pIC50 (literature; calcd)” value was 5.29 and the IC50 is 5100 ± 3100 nM. In addition, the “critical micelle concentration (CMC)” value in series [3] (ref 61) was above 100 µM.

With `CCCCCCCC/C=C\CCCCCCCC(=O)O[C@H](CC(=O)[O-])C[N+](C)(C)C` [oleoyl‐L‐carnitine, Oleoyl‐L‐carnitine], at hGlyT2 (setting [6]), the Ki was 2630 nM. In addition, in the series on GlyT2 [2] (ref 18), the “pIC50 (literature; calcd)” value is listed as 6.47 and the IC50 is 340 nM. Also, the “critical micelle concentration (CMC)” value in series [3] (ref 18) is 7.4 µM.

For the compound `CC(=O)N(C)C` [DMA, N,N‐dimethylacetamide], the “influence on Org25543 binding at GlyT2, in words” value at GlyT2 [4] is given as “no influence on the Org25543 binding at GlyT2; also recorded: not effect Org25543 binding”.

Turning to `COc1cc(C(=O)NCC2(N(C)C)CCCCC2)cc(OC)c1OCc1ccccc1` [compound 8], the IC50 was 84 nM in the series with GlyT2 [5] and 84 ± 3 nM in the series on GlyT2 [2] (ref 23). For the same compound, the Ki at hGlyT2 (setting [6]) is 41.7 nM. In the series on GlyT2 [2] (ref 23), the “pIC50 (literature; calcd)” value is reported as 7.08.
